Data taken from US20190322676A1, “CERAMIDE GALACTOSYLTRANSFERASE INHIBITORS FOR THE TREATMENT OF DISEASE” (BioMarin Pharmaceutical Inc., priority 2016, published 2019).
Structures can show the parent of a compound that is named as a salt.

Tests used:
[1] = target: T1, human CGT (ceramide galactosyltransferase), CHO/CGT lysate (Homo sapiens, UniProt Q16880); assay: CGT enzyme assay, RapidFire/MS/MS readout (Table 1 ranges with one asterisk *); assay type: biochemical; conditions: RapidFire method (range with one asterisk *)
T1 construct: Full-length human CGT cDNA was cloned into the BamH1/Xho1 site of pcDNA3.1 (+); expressed in transfected cells; host or cells: Chinese hamster ovary (CHO) cells; lysate prepared with M-PER
T1 sequence (Q16880 21-541): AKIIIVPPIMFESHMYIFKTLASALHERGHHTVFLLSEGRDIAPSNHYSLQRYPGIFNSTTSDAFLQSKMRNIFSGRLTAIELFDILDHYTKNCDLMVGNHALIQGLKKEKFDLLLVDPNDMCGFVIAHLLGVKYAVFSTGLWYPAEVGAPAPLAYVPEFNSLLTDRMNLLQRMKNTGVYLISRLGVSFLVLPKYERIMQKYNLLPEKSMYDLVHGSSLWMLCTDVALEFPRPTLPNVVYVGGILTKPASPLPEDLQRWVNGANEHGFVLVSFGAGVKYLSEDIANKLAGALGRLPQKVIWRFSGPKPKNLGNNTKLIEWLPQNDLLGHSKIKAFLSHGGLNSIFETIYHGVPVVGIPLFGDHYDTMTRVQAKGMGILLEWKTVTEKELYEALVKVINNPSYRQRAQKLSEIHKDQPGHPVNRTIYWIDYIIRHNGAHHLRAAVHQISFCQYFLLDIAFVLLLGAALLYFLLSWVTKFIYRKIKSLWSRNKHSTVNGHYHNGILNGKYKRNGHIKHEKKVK
How it was run: (§1)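 Lysate (4 μg) of CHO cells transfected with full-length human CGT incubated 1 h at 37 °C with compound (0.001–50 μM) in pH 7.2 HEPES buffer with 10 μM C6-NBD-dihydro-ceramide, 17.5 μM UDP-galactose, Mg2+/Mn2+, CHAPS, BSA, 0.5% DMSO; ** set also contained 0.01% Tween 80. Product quantified by RapidFire/MS/MS, normalized to internal standard; IC50 from sigmoidal variable-slope fits.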

[2] = target: T1, human CGT (ceramide galactosyltransferase), CHO/CGT lysate; assay: CGT enzyme assay, RapidFire/MS/MS readout with 0.01% Tween added (Table 1 ranges with two asterisks **); assay type: biochemical
How it was run: as §1

[3] = CGT enzyme assay, RapidFire/MS/MS method with 0.01% Tween added (range with two asterisks **)
[4] = CGT enzymatic assay, range with two asterisks (**): RapidFire/MS/MS method with 0.01% Tween added

| SMILES | IC50 [1] | IC50 [2, 3] | IC50 [2, 4] |
| --- | --- | --- | --- |
| NC1CC2CCC(C1)N2C(=O)[C@@H](NC(=O)[C@@H](O)c1ccc2cc(OC3CCCC3)ccc2c1)C(F)(F)c1ccc(-c2ccc(Cl)cc2)cc1 (stereo partly drawn) [Compound 136-3, (2S)—N-((2R)-3-(3-amino-8-azabicyclo[3.2.1]octan-8-yl)-1-(4′-chloro-[1,1′-biphenyl]-4-yl)-1,1-difluoro-3-oxopropan-2-yl)-2-(6-(cyclopentyloxy)naphthalen-2-yl)-2-hydroxyacetamide trifluoroacetate] | 1 to 10 µM | 1 to 10 µM | – |
| NC1CCN(C(=O)[C@H](NS(=O)(=O)c2ccc3cc(OC4CCCC4)ccc3c2)C(F)(F)c2ccc(-c3ccc(Cl)cc3)cc2)CC1 [Compound 91-2, (S)—N-(3-(4-aminopiperidin-1-yl)-1-(4′-chloro-[1,1′-biphenyl]-4-yl)-1,1-difluoro-3-oxopropan-2-yl)-6-(cyclopentyloxy)naphthalene-2-sulfonamide trifluoroacetate] | 1 to 10 µM | 1 to 10 µM | – |
| NC1CCN(C(=O)[C@@H](NS(=O)(=O)c2ccc(OCC3CCCCC3)cc2)C(F)(F)c2ccc(-c3ccc(Cl)cc3)cc2)CC1 [Compound 96-1, (R)—N-(3-(4-aminopiperidin-1-yl)-1-(4′-chloro-[1,1′-biphenyl]-4-yl)-1,1-difluoro-3-oxopropan-2-yl)-4-(cyclohexylmethoxy)benzenesulfonamide trifluoroacetate] | 1 to 10 µM | 1 to 10 µM | – |
| NC1CCN(C(=O)[C@H](NS(=O)(=O)c2ccc(OCC3CCCCC3)cc2)C(F)(F)c2ccc(-c3ccc(Cl)cc3)cc2)CC1 [Compound 96-2, (S)—N-(3-(4-aminopiperidin-1-yl)-1-(4′-chloro-[1,1′-biphenyl]-4-yl)-1,1-difluoro-3-oxopropan-2-yl)-4-(cyclohexylmethoxy) benzenesulfonamide trifluoroacetate] | 30 to 100 µM | 30 to 100 µM | – |
| NC1CCN(C(=O)[C@@H](NS(=O)(=O)c2ccc3cc(OC4CCCC4)ccc3c2)C(F)(F)c2ccc(-c3ccc(Cl)cc3)cc2)CC1 [Compound 91-1, (R)—N-(3-(4-aminopiperidin-1-yl)-1-(4′-chloro-[1,1′-biphenyl]-4-yl)-1,1-difluoro-3-oxopropan-2-yl)-6-(cyclopentyloxy)naphthalene-2-sulfonamide trifluoroacetate] | < 1 µM | < 1 µM | – |
| NC1CC2CCC(C1)N2C(=O)[C@H](NS(=O)(=O)c1ccc2cc(OC3CCCC3)ccc2c1)C(F)(F)c1ccc(-c2ccc(Cl)cc2)cc1 (stereo partly drawn) [Compound 48-2, N-((2S)-3-(3-amino-8-azabicyclo[3.2.1]octan-8-yl)-1-(4′-chloro-[1,1′-biphenyl]-4-yl)-1,1-difluoro-3-oxopropan-2-yl)-6-(cyclopentyloxy)naphthalene-2-sulfonamide trifluoroacetate] | 1 to 10 µM | 1 to 10 µM | – |
| NC1CC2CCC(C1)N2C(=O)[C@@H](NS(=O)(=O)c1ccc2cc(OC3CCCC3)ccc2c1)C(F)(F)c1ccc(-c2ccc(Cl)cc2)cc1 (stereo partly drawn) [Compound 48-1, N-((2R)-3-(3-amino-8-azabicyclo[3.2.1]octan-8-yl)-1-(4′-chloro-[1,1′-biphenyl]-4-yl)-1,1-difluoro-3-oxopropan-2-yl)-6-(cyclopentyloxy)naphthalene-2-sulfonamide trifluoroacetate] | < 1 µM | < 1 µM | – |
| NC1CCN(C(=O)[C@@H](NS(=O)(=O)c2ccc(CCOC3CCCC3)cc2)C(F)(F)c2ccc(-c3ccc(Cl)cc3)cc2)CC1 [Compound 185-1, (R)-N-(3-(4-aminopiperidin-1-yl)-1-(4′-chloro-[1,1′-biphenyl]-4-yl)-1,1-difluoro-3-oxopropan-2-yl)-4-(2-(cyclopentyloxy)ethyl)benzenesulfonamide] | – | – | 10 to 30 µM |
| NC1CC2CCC(C1)N2C(=O)[C@@H](NS(=O)(=O)c1cc2ccc(OC3CCCC3)cc2s1)C(F)(F)c1ccc(Br)cc1 (stereo partly drawn) [Compound 167-1, N-((2R)-3-(3-amino-8-azabicyclo[3.2.1]octan-8-yl)-1-(4-bromophenyl)-1,1-difluoro-3-oxopropan-2-yl)-6-(cyclopentyloxy)benzo[b]thiophene-2-sulfonamide trifluoroacetate] | – | – | 1 to 10 µM |
| N[C@@H]1CCN(C(=O)[C@H](NS(=O)(=O)c2ccc3cc(OC4CCCC4)ccc3c2)C(F)(F)c2ccc(-c3ccc(Cl)cc3)cc2)C[C@H]1F [Compound 178-3, N—((S)-3-((3R,4R)-4-amino-3-fluoropiperidin-1-yl)-1-(4′-chloro-[1,1′-biphenyl]-4-yl)-1,1-difluoro-3-oxopropan-2-yl)-6-(cyclopentyloxy)naphthalene-2-sulfonamide] | – | – | 30 to 100 µM |
| CCOc1cc(-c2ccc(C(F)(F)[C@H](NS(=O)(=O)c3ccc(OCC4CCCCC4)cc3)C(=O)N3CCC(N)CC3)cc2)ccc1Cl [Compound 153-1, (R)—N-(3-(4-aminopiperidin-1-yl)-1-(4′-chloro-3′-ethoxy-[1,1′-biphenyl]-4-yl)-1,1-difluoro-3-oxopropan-2-yl)-4-(cyclohexylmethoxy)benzenesulfonamide trifluoroacetate] | – | – | 1 to 10 µM |
| NC(=O)C1CCN(C(=O)[C@@H](NS(=O)(=O)c2ccc3cc(OC4CCCC4)ccc3c2)C(F)(F)c2ccc(-c3ccc(Cl)cc3)cc2)CC1 [Compound 173-1, (R)-1-(3-(4′-chloro-[1,1′-biphenyl]-4-yl)-2-((6-(cyclopentyloxy)naphthalene)-2-sulfonamido)-3,3-difluoropropanoyl)piperidine-4-carboxamide] | – | – | 1 to 10 µM |
| NC1CCN(C(=O)[C@@H](N(CC(F)(F)F)S(=O)(=O)c2ccc3cc(OC4CCCC4)ccc3c2)C(F)(F)c2ccc(Br)cc2)CC1 [Compound 187-1, (R)-N-(3-(4-aminopiperidin-1-yl)-1-(4-bromophenyl)-1,1-difluoro-3-oxopropan-2-yl)-6-(cyclopentyloxy)-N-(2,2,2-trifluoroethyl)naphthalene-2-sulfonamide] | – | – | 30 to 100 µM |
